{
  "source": "ChEMBL document CHEMBL5042533",
  "about": "“Structural Optimization and Structure-Activity Relationship Studies of 6,6-Dimethyl-4-(phenylamino)-6H-pyrimido[5,4-b][1,4]oxazin-7(8H)-one Derivatives as A New Class of Potent Inhibitors of Pan-Trk and Their Drug-Resistant Mutants” (J Med Chem, 2022)",
  "key": {"[1]": {"experiment": "Inhibition of TrkA G667S mutant (unknown origin) by radiometric assay", "parameters": "species or system Homo sapiens"}, "BaF3 [2]": {"system": "BaF3", "experiment": "Inhibition of PLCgamma1 phosphorylation in mouse BaF3 cells expressing TEL fused TrkC G623R mutant incubated for 6 hrs by Western blot analysis", "type": "cell-based", "conditions": "dose 3-300 nM"}, "BaF3 [3]": {"system": "BaF3", "experiment": "Induction of apoptosis on mouse BaF3 cells expressing TEL fused TrkC G623R mutant incubated for 24 hrs by Annexin V-FITC/propidium iodide staining based flow cytometric analysis", "type": "functional, cell-based", "conditions": "dose 3-1000 nM"}, "Ephrin type-A receptor 8": {"molecular_target": "T1, Ephrin type-A receptor 8 (Homo sapiens, UniProt P29322)", "T1 sequence (P29322 whole entry)": "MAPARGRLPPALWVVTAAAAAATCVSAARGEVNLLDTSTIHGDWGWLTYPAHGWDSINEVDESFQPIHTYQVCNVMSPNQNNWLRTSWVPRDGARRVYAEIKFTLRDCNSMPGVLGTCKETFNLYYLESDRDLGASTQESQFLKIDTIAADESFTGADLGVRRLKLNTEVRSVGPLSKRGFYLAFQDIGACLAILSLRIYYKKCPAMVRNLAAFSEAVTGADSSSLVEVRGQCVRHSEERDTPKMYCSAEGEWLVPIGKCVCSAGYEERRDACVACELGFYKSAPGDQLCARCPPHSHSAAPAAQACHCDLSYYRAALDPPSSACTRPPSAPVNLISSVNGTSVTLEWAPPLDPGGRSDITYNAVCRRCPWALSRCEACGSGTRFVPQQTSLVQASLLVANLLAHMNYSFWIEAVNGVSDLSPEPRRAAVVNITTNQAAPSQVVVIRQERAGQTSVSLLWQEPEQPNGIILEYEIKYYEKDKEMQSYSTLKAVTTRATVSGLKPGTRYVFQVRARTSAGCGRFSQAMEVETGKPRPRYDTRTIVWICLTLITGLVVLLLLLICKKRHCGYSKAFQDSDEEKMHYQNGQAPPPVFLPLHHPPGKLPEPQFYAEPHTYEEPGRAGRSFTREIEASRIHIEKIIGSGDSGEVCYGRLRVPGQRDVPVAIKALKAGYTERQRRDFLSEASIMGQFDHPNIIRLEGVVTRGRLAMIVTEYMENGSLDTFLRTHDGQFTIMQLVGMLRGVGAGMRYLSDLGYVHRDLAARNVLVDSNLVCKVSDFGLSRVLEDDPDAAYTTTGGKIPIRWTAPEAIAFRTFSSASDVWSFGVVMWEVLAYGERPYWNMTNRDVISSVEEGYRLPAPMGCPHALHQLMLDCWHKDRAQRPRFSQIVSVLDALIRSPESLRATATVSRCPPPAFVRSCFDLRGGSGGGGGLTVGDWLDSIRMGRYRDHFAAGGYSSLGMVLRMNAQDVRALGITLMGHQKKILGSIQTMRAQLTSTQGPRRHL", "experiment": "Inhibition of human EphA8 in presence of ATP by radiometric assay"}, "[4]": {"experiment": "AUC(0 to t) in Sprague-Dawley rat at 5 mg/kg, iv measured up to 24 hrs by HPLC method", "type": "ADME, organism-based", "parameters": "route intravenous, dose 5 mg/kg, time <=24", "conditions": "in vivo"}, "[5]": {"experiment": "Cmax in Sprague-Dawley rat at 5 mg/kg, iv measured up to 24 hrs by HPLC method", "type": "ADME, organism-based", "parameters": "route intravenous, dose 5 mg/kg, time <=24", "conditions": "in vivo"}, "[6]": {"experiment": "Toxicity in NOD-SCID mouse assessed as histological changes in spleen at 5 to 20 mg/kg, iv measured after 10 days by H and E staining based microscopic analysis", "type": "organism-based", "conditions": "in vivo, 240 h, dose 5-20 mg/kg, time 10 day"}, "BaF3 [7]": {"system": "BaF3", "experiment": "cells", "conditions": "Mus musculus, BaF3, 72 h", "description": "Cytotoxicity against mouse BaF3 cells expressing CD74 fused TrkA assessed as inhibition of cell growth incubated for 3 days by CCK-8 assay"}, "in vitro": {"experiment": "in vitro", "conditions": "mouse, BaF3 cells", "description": "Cytotoxicity against mouse BaF3 assessed as inhibition of cell growth incubated for 3 days by CCK-8 assay"}},
  "note": "Active and inactive are the calls of the source. The calls are words filed in the database; no cut-off is given here.",
  "data": [
    {"molecule": "Cc1cc(NC(=O)Nc2cc(C(C)(C)C)nn2-c2ccc(Cl)cc2)ccc1Nc1ncnc2c1OC(C)(C)C(=O)N2", "values": [
      {"measurement": "IC50", "setting": "[1]", "value": 0.005, "unit": "µM"},
      {"measurement": "inhibition", "setting": "BaF3 [2]", "value": "Active"},
      {"measurement": "Activity", "setting": "BaF3 [3]", "value": "Dose-Dependent Effect"},
      {"measurement": "IC50", "setting": "Ephrin type-A receptor 8", "value": 0.101, "unit": "µM"},
      {"measurement": "AUC(0-t) at 24 h", "setting": "[4]", "value": 17.9, "unit": "µg·h/mL"},
      {"measurement": "Cmax", "setting": "[5]", "value": 21.3, "unit": "µg/mL"},
      {"measurement": "Activity", "setting": "[6]", "value": "Non-Toxic"},
      {"measurement": "IC50", "setting": "BaF3 [7]", "value": 0.0005, "unit": "µM"},
      {"measurement": "IC50 at 3 days", "setting": "in vitro", "value": 9.53, "unit": "µM"}
    ]}
  ]
}
